Reference: a melting point compilation (Tetko et al.; mined from patent text by program, amines drawn as free bases though some values may be those of a salt)

Row | SMILES | melting point
1 | CCOC(=O)C(=O)Nc1nc2c(OC)ccc(-c3ccccc3)c2s1 | 138 to 142 °C
2 | Cc1nn(C)c2cc(-c3ccc(F)cc3)nc(-c3ccc4c(c3)OCO4)c12 | 166 to 168 °C
3 | CC(C)c1cccc(C(C)C)c1NC(=O)N(Cc1ccc(N(C)C)cc1)c1ccc(Cl)cc1 | 151 to 152 °C
4 | O=C(CNC(=O)OCc1ccc([N+](=O)[O-])cc1)Nc1ccc(C(=O)OCCl)cc1 | 163 to 165 °C
5 | CC(=O)c1ccc(-c2cc(-c3nc4ccccc4c(=O)n3-c3ccc(Cl)cc3)sc2N2CCOCC2)cc1 | 222 to 226 °C
6 | CC(C)n1nc(-c2nc(Br)c(N=S(C)C)nc2-c2ccccc2)ccc1=O | 220 to 224 °C
7 | COc1cc(/C=C/C(=O)c2ccc(NS(C)(=O)=O)cc2)cc(-c2cccs2)c1OC | 71 to 75 °C
8 | O=C(O)c1nc(NCC(c2ccccc2)c2ccccc2)c2nc[nH]c2n1 | 241 to 249 °C
9 | Cn1c(=O)[nH]c2ccc(-c3cccc(Cl)c3)cc21 | 219 to 220 °C
10 | COc1ccc(C2(c3cccc(C)n3)OCCCO2)cc1OC | 124 to 126 °C
11 | O=C(O)Cc1cc(Cl)c2c(c1)CCC(c1ccccc1)N2 (stereo not drawn) | 126 to 127 °C
12 | CC(=O)N1CCCCc2ccc(C(=O)CCC3CCN(Cc4ccccc4)CC3)cc21 | 115 to 116 °C
13 | CCC(O)(CCC(N)=O)c1ccc(Cl)c(Cl)c1 (stereo not drawn) | 106 to 107 °C
14 | CCOC(=O)c1c(CCc2ccc(OC)cc2)oc2ccc(Br)cc12 | 73 to 75 °C
15 | C=C(C)C(=O)Oc1ccc(/C=C/C(=O)OC)cc1 | 76 to 80 °C
16 | O=C1CCc2cc(Oc3ccccc3)ccc21 | 92 to 93 °C
17 | Cc1c(C)c(N2Cc3cc(Cl)c(Cl)cc3C2)c(C)c2c1OC(C)(C)C2c1ccc(F)cc1 (stereo not drawn) | 233 to 238 °C
18 | CCCCC1(CCCC)NC(c2nc(-c3ccncc3)c[nH]2)Cc2c1[nH]c1ccccc21 (stereo not drawn) | 200 to 205 °C
19 | CCOC(=O)Cc1ccc2cc(O)ccc2c1 | 81 to 83 °C
20 | CC(=O)Cc1ccc2c(c1)-c1[nH]c3ccc(C(F)(F)F)cc3c1CC(=O)N2 | 295 to 297 °C
21 | CC(C)(C)C(=O)c1ccc(S(=O)(=O)C[N+](=O)[O-])s1 | 98 to 99 °C
22 | Clc1ccc2ccc(COc3ccc(CN4CCc5cccc(CCc6nnn[nH]6)c54)cc3)nc2c1 | 69 to 73 °C
23 | O=[N+]([O-])c1cc(Cl)c(Cl)cc1O | 63 to 65 °C
24 | CCOC(=O)c1c(Cl)c2cccnc2n(Cc2ccccc2)c1=O | 109 °C
25 | O=CN1[C@@H](c2cccnc2)SC[C@H]1C(=O)O | 250 °C

Row | SMILES | melting point
26 | COC(=O)c1cccc(-c2ccc(O)cc2)c1 | 135 to 136 °C
27 | FC(F)(F)Oc1ccc(C2=CCC3(CC2)OCCO3)cc1 | 53.9 to 55.5 °C
28 | CC1(C(=O)NCC(=O)O)CC1(Cl)Cl (stereo not drawn) | 139 to 140 °C
29 | COc1ccc(CCNC(=S)c2ccccc2C)cc1OC | 94 to 95 °C
30 | Cc1oc2ccc(Br)cc2c(=O)c1-c1ccccc1 | 119 to 121 °C
31 | Cc1ccc(S(=O)(=O)NCCCC(NS(=O)(=O)c2ccc(-c3ccc(Cl)cc3)cc2)C(=O)O)cc1 (stereo not drawn) | 62 °C
32 | COC(=O)CC(=O)c1cncc(OC)n1 | 66 °C
33 | CC1(C)CN=C2N(C1)c1ccc(Br)cc1C21OCCCO1 | 151 to 153 °C
34 | Cc1cc(Cc2ccc(Cl)cc2)n(O)c(=O)c1 | 142 °C
35 | O=C(O)[C@H](Cc1ccccc1)NC(=O)N1CCOCC1 | 57 to 60 °C
36 | CCOc1ccc(-c2ccc3c(c2)C=C(C(=O)O)CCN3S(C)(=O)=O)cc1F | 237 to 239 °C
37 | CN1C(=O)c2ccccc2N=C(NCCc2ccccc2)C1c1ccccc1 (stereo not drawn) | 173 to 174 °C
38 | c1ccc(-c2nc3ccccc3n3cncc23)cc1 | 165 to 167 °C
39 | OC(c1cccc(F)c1)(c1cccc(F)c1)C1CCNCC1 | 117 to 118 °C
40 | CCn1c(C)nc2cc(CN3CCN(C(c4ccccc4)c4ccccc4)CC3)ccc21 | 153 °C
41 | O=c1nc(-c2cccc(S(=O)(=O)CCc3ccccc3)n2)sc2ccccc12 | 162 to 164 °C
42 | CCCc1nc2cc3c(cc2[nH]1)NC(=O)C3(C)C | 284 to 285 °C
43 | CCC(O)c1cc2cc(OCC(=O)O)c(Cl)c(Cl)c2s1 (stereo not drawn) | 156 to 158 °C
44 | CCOC(=O)c1nc(-c2ccc(CN(C)C)cc2)[nH]c1-c1ccc(Cl)cc1 | 117 to 118 °C
45 | OCc1c(OCc2ccccc2)ccc2c1CC[C@@H](NC1CCC1)[C@@H]2O (relative stereo) | 156 to 158 °C
46 | CCN1CCC(CCC2CCN(c3ncnc4cc(OC)c(OC)cc34)CC2)S1(=O)=O (stereo not drawn) | 130 °C
47 | O=C(OCC1CCC1)c1ncn2c1[C@@H]1CCCN1C(=O)c1c(Cl)cccc1-2 | 204 to 205 °C
48 | CCS(=O)(=O)Nc1cccc(SCc2ccccc2)n1 | 87 to 92 °C
49 | CS(=O)(=O)c1ccc(-c2nc(C(F)(F)F)nc(Cl)c2-c2ccc(F)cc2)cc1 | 195 to 197 °C
50 | O=C(O)/C=C/n1cnc2ccccc2c1=O | 250 to 254 °C

Row | SMILES | melting point
51 | CCOCc1ccc(CN(O)C(N)=O)o1 | 80.5 °C
52 | O=C(c1cc(C(F)(F)F)cc(C(F)(F)F)c1)N1CCN(C(=O)CN2CC3CC2CN3Cc2ccccc2)C(c2ccc(Cl)c(Cl)c2)C1 (racemic) | 75 to 77 °C
53 | COCCOC/C(=C\S(=O)(=O)c1ccccc1)C(=O)OC(C)(C)C | 46 to 48 °C
54 | CC(C)(C)OC(=O)NCC(=O)NCc1ccc(Nc2n[nH]c3ncnc(Nc4cccc(Cl)c4)c23)cc1 | 205 °C
55 | Cc1cc(-c2ccc(C(F)(F)F)cc2)cc(-c2cccc(-c3cccc(S(N)(=O)=O)c3)n2)n1 | 250 °C
56 | CC(=O)NCC1(c2ccccc2)CCN(CCC(c2ccccc2)(c2ccccc2)c2ccccc2)CC1 | 154 to 167 °C
57 | CCCn1c(=O)c2c(nc(C=O)n2C)n(CCC)c1=O | 130 °C
58 | CCCCCCCc1ccc(C=CC(=O)c2ccc(OCC=C(C)C)cc2OCC(=O)O)cc1 | 106 to 107 °C
59 | COc1cc(-c2cc(=O)c3ccc(OCCBr)cc3o2)cc(OC)c1OC | 184 to 185 °C
60 | COCc1cnc2c(NC(=O)c3c(Cl)cccc3Cl)ccc(C)c2c1Cl | 180 °C
61 | O=C(c1ccccc1)N1CCC2(CC1)Cc1ccccc1C2=O | 149 to 154 °C
62 | Cc1coc(N2CCCC2=O)n1 | 116 °C
63 | CS(=O)(=O)c1ncc(F)c(N)n1 | 157 to 159 °C
64 | Clc1ccc(C=Cc2nc3c(s2)NCCCC3)cc1 | 188 to 189 °C
65 | COc1cc2c(cc1-c1cccnc1)-c1c(Br)c3c(n1CC2)C(=O)N(C(C)(C)C)CCC3 | 184 to 186 °C
66 | O=[N+]([O-])c1ccc(Cl)c(C2OCCO2)c1 | 78 to 81 °C
67 | NC(=O)N(O)CC#CCOc1ccccc1 | 97 to 99 °C
68 | Fc1cccc(F)c1-c1ncc(-c2ccc(-c3ccc(OC(F)(F)F)cc3)cc2)cn1 | 215 to 216 °C
69 | CCCc1ccc(C(=O)Nc2ccc3sc(C)nc3c2Cl)cc1 | 184 °C
70 | CC(C)(C)C1CC(=O)CC(C(C)(C)C)N1 (stereo not drawn) | 55.4 °C
71 | NS(=O)(=O)c1ccccc1C=CC(F)(F)F | 153 to 154 °C
72 | CCC1Cc2cc(OCC#N)c(Cl)c(Cl)c2C1=O (stereo not drawn) | 139 to 141 °C
73 | CN1CCN(c2nc3sc4c(NCc5ccccn5)ncnc4c3c3c2CCC(C)(C)C3)CC1 | 200 to 202 °C
